Earlier results as cited in publication PMC7932080, “In vitro study of Hesperetin and Hesperidin as inhibitors of zika and chikungunya virus proteases” (PLoS ONE, 2021).

Conditions: dose of administration 20 mg/kg, cited from earlier work

SMILES: COc1ccc(C2CC(=O)c3c(O)cc(O)cc3O2)cc1O (stereo not shown) [HST, 3’,5,7-trihydroxy-4’-methoxyflavanone]
- AUC inf.: 3.49 ± 0.37 µM·h
- AUC last: 3.01 ± 0.29 µM·h
- Cl systemic clearance: 318.2 ± 33.2 mL/min/kg
- MRT mean residence time: 3.60 ± 0.21 h
- T1/2 elimination half-life: 5.32 ± 0.62 h
- Vd volume of distribution: 145.60 ± 8.84 L/kg
- C0 (read-out: Co initial concentration): 7.35 ± 1.71 µM
